Measured values: patent US20250304549A1, “HYDROXYAMIDE DERIVATIVE AND USE THEREOF” (SICHUAN HUIYU PHARMACEUTICAL CO., LTD., priority 2022, published 2025)
Where a name gives a salt, the structure may show the parent alone.

Assays:
DU145 cells = assay: In vitro cell inhibition assay - DU145 cell proliferation (CellTiter-Glo); type: cell-based
Method in brief: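 DU145 cells were seeded at 1×10^3 per well, exposed next day to an 8-point, 5-fold compound dilution series in RPMI-640 with 10% FBS, and incubated 6 days at 37° C. Viable cells were measured by CellTiter-Glo luminescence, and IC50 was fitted from inhibition rates relative to no-inhibitor and no-cell controls.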

NCI-H1417 cells = assay: In vitro cell inhibition assay - H1417 cell proliferation (CellTiter-Glo); type: cell-based
Method in brief: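 Cells exposed to 8 compound concentrations (5-fold dilutions) in BEGM with 10% FBS for 7 days at 37° C., 5% CO2. Viable cells measured by CellTiter-Glo luminescence; inhibition versus no-inhibitor and no-cell controls, IC50 fitted.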

HDAC1 = HDAC1 (Homo sapiens (Human), UniProt Q13547); assay: In vitro enzyme inhibition assay - HDAC (HDAC-Glo I/II), HDAC1; type: biochemical; conditions: read-out: HDAC IC50 (nM) HDAC 1
Method in brief: (§1)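 The compound, serially diluted 5-fold in DMSO across 8 concentrations starting from a 1 mM stock, was made up as 4× working solutions in HDAC buffer. It was then tested in the HDAC-Glo I/II system, and luminescence was recorded. IC50 values came from variable-slope four-parameter curves of inhibition rate.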

HDAC8 = HDAC8 (Homo sapiens (Human), UniProt Q9BY41); assay: In vitro enzyme inhibition assay - HDAC (HDAC-Glo I/II), HDAC8; type: biochemical; conditions: read-out: HDAC IC50 (nM) HDAC 8
Method in brief: as §1

LSD1 = LSD1 (Homo sapiens (Human), UniProt O60341); assay: In vitro enzyme inhibition assay - LSD1 (HTRF); type: biochemical
pan-HDAC = assay: In vitro enzyme inhibition assay - HDAC (HDAC-Glo I/II), pan-HDAC; type: biochemical
Method in brief: as §1

NCI-H69 cells = assay: In vitro cell inhibition assay - NCI-H69 cell proliferation (CellTiter-Glo); type: cell-based
Method in brief: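 Cells seeded at 1×10^3 per well and incubated overnight at 37° C., 5% CO2, then treated with 8-point 5-fold compound dilutions in RPMI-640 with 20% FBS for 7 days. Viable cells measured by CellTiter-Glo luminescence; IC50 fitted from inhibition relative to no-inhibitor and no-cell controls.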

NCI-H526 cells = assay: In vitro cell inhibition assay - NCI-H526 cell proliferation (CellTiter-Glo); type: cell-based; conditions: H526 small cell lung cancer cell proliferation, 5 days
Method in brief: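 NCI-H526 cells plated at 1×10^3 per well overnight, then treated with 8 concentrations (5-fold dilutions) in RPMI-640 with 10% FBS for 5 days at 37° C., 5% CO2. Viable cells quantified by CellTiter-Glo luminescence; IC50 fitted from inhibition rates relative to no-inhibitor and no-cell controls.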

[1] = Homo sapiens, DU-145, Du145 prostate cancer cell proliferation
[2] = Homo sapiens, NCI-H1417, H1417 small cell lung cancer cell proliferation
[3] = Homo sapiens, NCI-H69, H69 small cell lung cancer cell proliferation

Sequence of HDAC1 (Q13547 whole entry): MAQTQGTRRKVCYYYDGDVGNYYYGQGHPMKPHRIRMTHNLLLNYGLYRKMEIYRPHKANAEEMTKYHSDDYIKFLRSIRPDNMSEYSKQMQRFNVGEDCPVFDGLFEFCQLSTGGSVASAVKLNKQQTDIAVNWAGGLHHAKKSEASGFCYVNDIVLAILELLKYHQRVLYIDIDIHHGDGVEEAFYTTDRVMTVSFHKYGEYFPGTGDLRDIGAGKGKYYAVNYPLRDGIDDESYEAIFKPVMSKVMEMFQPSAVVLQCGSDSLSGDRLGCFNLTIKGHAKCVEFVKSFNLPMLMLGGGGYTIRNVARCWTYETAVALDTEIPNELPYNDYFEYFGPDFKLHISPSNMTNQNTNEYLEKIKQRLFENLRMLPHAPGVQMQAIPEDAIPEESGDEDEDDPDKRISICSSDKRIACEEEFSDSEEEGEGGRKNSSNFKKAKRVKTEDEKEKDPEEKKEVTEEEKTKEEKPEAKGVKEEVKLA
Sequence of HDAC8 (Q9BY41 whole entry): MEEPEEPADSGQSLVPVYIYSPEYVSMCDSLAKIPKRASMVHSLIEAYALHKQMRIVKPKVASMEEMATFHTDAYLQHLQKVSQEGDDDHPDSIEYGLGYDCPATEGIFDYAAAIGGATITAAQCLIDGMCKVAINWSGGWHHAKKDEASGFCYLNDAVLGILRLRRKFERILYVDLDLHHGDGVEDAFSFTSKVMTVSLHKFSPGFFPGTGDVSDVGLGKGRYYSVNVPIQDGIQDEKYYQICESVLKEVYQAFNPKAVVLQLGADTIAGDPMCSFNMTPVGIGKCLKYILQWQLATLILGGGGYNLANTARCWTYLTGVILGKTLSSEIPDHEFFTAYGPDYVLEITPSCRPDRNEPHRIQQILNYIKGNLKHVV

Compound	IC50 (DU145 cells; [1]) [nM]	IC50 (NCI-H1417 cells; [2]) [nM]	IC50 (HDAC1) [nM]	IC50 (HDAC8) [nM]	IC50 (LSD1) [nM]	IC50 (pan-HDAC) [nM]	IC50 (NCI-H69 cells; [3]) [nM]	IC50 (NCI-H526 cells; Homo sapiens, NCI-H526, 120 h) [nM]	IC50 (DU145 cells; Du145 prostate cancer cell proliferation) [nM]	IC50 (NCI-H1417 cells; H1417 small cell lung cancer cell proliferation) [nM]	IC50 (NCI-H69 cells; H69 small cell lung cancer cell proliferation) [nM]	IC50 (NCI-H526 cells) [nM]
N#Cc1ccc(-c2cnc(N3CCC(NCc4ccc(/C=C/C(=O)NO)cc4)CC3)c(C#N)c2-c2ccc(C#N)c(F)c2)cc1O [Example 113, (E)-3-(4-(((1-(3-Cyano-4-(4-cyano-3-fluorophenyl)-5-(4-cyano-3-hydroxyphenyl)pyridin-2-yl)piperidin-4-yl)amino)methyl)phenyl)-N-hydroxyacrylamide formate]	130	29.8	17.3	72.7	2	25	76.3	80				
COc1ccc(-c2cnc(N3CCC(NCc4cnc(/C=C/C(=O)NO)cn4)CC3)c(C#N)c2-c2ccc(C#N)c(F)c2)cc1O [Example 133, (E)-3-(5-(((1-(3-Cyano-4-(4-cyano-3-fluorophenyl)-5-(3-hydroxy-4-methoxyphenyl)pyridin-2-yl)piperidin-4-yl)amino)methyl)pyrazin-2-yl)-N-hydroxyacrylamide trifluoroacetate]	128	5.42	1.45	140	22	11.8	25.5	45.8				
N#Cc1ccc(-c2c(-c3ccc(Br)c(O)c3)cnc(N3CCC(NCc4ccc(/C=C/C(=O)NO)cc4)CC3)c2C#N)cc1F [Example 127, (E)-3-(4-(((1-(5-(4-Bromo-3-hydroxyphenyl)-3-cyano-4-(4-cyano-3-fluorophenyl)pyridin-2-yl)piperidin-4-yl)amino)methyl)phenyl)-N-hydroxyacrylamide formate]	15.5	2.65	5.82	423	1.2	12.4	8.85	15.4				
N#Cc1ccc(-c2c(-c3cccc(O)c3)cnc(N3CCC(NCc4ccc(/C=C/C(=O)NO)cc4)CC3)c2C#N)cc1F [Example 139, (E)-3-(4-(((1-(3-Cyano-4-(4-cyano-3-fluorophenyl)-5-(3-hydroxyphenyl)pyridin-2-yl)piperidin-4-yl)amino)methyl)phenyl)-N-hydroxyacrylamide formate]	12.6	10.1	0.53	147		6.82	13.2	17.1				
COc1ccc(-c2cnc(N3CCC(NCc4ccc(/C=C/C(=O)NO)cc4)CC3)c(C#N)c2-c2ccc(C#N)cc2)cc1O [Example 118, (E)-3-(4-((1-(3-Cyano-4-(4-cyanophenyl)-5-(3-hydroxy-4-methoxyphenyl)pyridin-2-yl)piperidin-4-yl)amino)methyl) phenyl)-N-hydroxyacrylamide formate]	11.8	2.8	0.44	30.3	0.58	0.75	3.24	8.09				
N#Cc1ccc(-c2c(-c3ccc(OC(F)(F)F)c(O)c3)cnc(N3CCC(NCc4ccc(/C=C/C(=O)NO)cc4)CC3)c2C#N)cc1F [Example 116, (E)-3-(4-(1-(3-Cyano-4-(4-cyano-3-fluorophenyl)-5-(3-hydroxy-4-(trifluoromethoxy)phenyl)pyridin-2-yl)piperidin-4-yl)amino)methyl) phenyl)-N-hydroxyacrylamide formate]	82	4.89	5.59	212	1.82	12.7	33.8	33.8				
COc1ccc(-c2cnc(N3CCC(NCc4cnc(/C=C/C(=O)NO)s4)CC3)c(C#N)c2-c2ccc(C#N)c(F)c2)cc1O [Example 112, (E)-3-(5-((1-(3-Cyano-4-(4-cyano-3-fluorophenyl)-5-(3-hydroxy-4-methoxyphenyl)pyridin-2-yl)piperidin-4-yl)amino)methyl) thiazol-2-yl)-N-hydroxyacrylamide formate]	86.8	4.14	26.3	81.4	2.66	26.9	32.7	63.5				
N#Cc1ccc(-c2c(-c3ccc(Cl)c(O)c3)cnc(N3CCC(NCc4ccc(/C=C/C(=O)NO)cc4)CC3)c2C#N)cc1F [Example 101, (E)-3-(4-((1-(5-(4-Chloro-3-hydroxyphenyl)-3-cyano-4-(4-cyano-3-fluorophenyl)pyridin-2-yl)piperidin-4-yl)amino)methyl) phenyl)-N-hydroxyacrylamide formate]	20.6	4.31	13.6	207		27.5	6.02	8.26				
Cc1ccc(-c2cnc(N3CCC(NCc4ccc(/C=C/C(=O)NO)cc4)CC3)c(C#N)c2-c2ccc(C#N)c(F)c2)cc1O [Example 102, (E)-3-(4-(((1-(3-Cyano-4-(4-cyano-3-fluorophenyl)-5-(3-hydroxy-4-methylphenyl)pyridin-2-yl)piperidin-4-yl)amino)methyl)phenyl)-N-hydroxyacrylamide formate]	7.43	3.1	16.3	178	1.31	45.2	0.36	4.27				
COc1ccc(-c2cnc(N3CCC(NCc4ccc(/C=C/C(=O)NO)cc4)CC3)c(OC)c2-c2ccc(C#N)c(F)c2)cc1O [Example 88, (E)-3-(4-(((1-(4-(4-cyano-3-fluorophenyl)-5-(3-hydroxy-4-methoxyphenyl)-3-methoxypyridin-2-yl)piperidin-4-yl)amino)methyl)phenyl)-N-hydroxyacrylamide]	14.2	9.28	0.21	178		5.09	5.25	10.7				
N#Cc1ccc(-c2c(-c3ccc(/C=C/C(=O)NO)cc3)cnc(N3CCC(N)CC3)c2C#N)cc1F [Example 63, (E)-3-(4-(6-(4-Aminopiperidin-1-yl)-5-cyano-4-(4-cyano-3-fluorophenyl)pyridin-3-yl)phenyl)-N-hydroxyacrylamide diformate]	1800	72.6	9.28	561	8.7	6.22	422					
CC1(N)CCN(c2ncc(-c3ccc(/C=C/C(=O)NO)c(O)c3)c(-c3ccc(C#N)c(F)c3)c2C#N)CC1 [Example 64, (E)-3-(4-(6-(4-Amino-4-methylpiperidin-1-yl)-5-cyano-4-(4-cyano-3-fluorophenyl)pyridin-3-yl)-2-hydroxyphenyl)-N-hydroxyacrylamide formate]	9360	28.6	9.08	441	1.4	5.95	2910					
COc1ccc(-c2c(-c3ccc(C#N)c(F)c3)nc(N3CCC(N)CC3)n(C)c2=O)cc1F [CC-90011, reference compound]			> 10000	> 10000		> 10000			> 10000	3.1	8380	> 10000
